Test results from PubChem BioAssay AID328 (DTP/NCI, 2004).
Where “and” joins values, the source holds several entries; their conditions need not be identical. Identical values can stand only once. Inconclusive results and toxic doses are left out.

Tested on: BDF1 mice, P388 leukemia ip, median survival T/C
Assay: NCI In Vivo Anticancer Drug Screen. Data for tumor model P388 Leukemia (intraperitoneal) in B6D2F1 (BDF1) mice
Conditions: endpoint: median survival time, higher = longer survival
How it was run: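 T/C = treated-group survival ÷ vehicle-control survival; tumour transplanted into mice before dosing.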

[1] = dose: 100.0 mg/kg/injection, schedule: Q04DX003 (ip), vehicle: Klucel (hydroxypropylcellulose) (HPC)
[2] = dose: 200.0 mg/kg/injection, schedule: Q04DX003 (ip), vehicle: Klucel (hydroxypropylcellulose) (HPC)
[3] = dose: 400.0 mg/kg/injection, schedule: Q04DX003 (ip), vehicle: Klucel (hydroxypropylcellulose) (HPC)

In the case of `CCC[CH2][Sn]([Cl])([CH2]CCC)[S]C(=S)NCCNC(=S)[S][Sn]([Cl])([CH2]CCC)[CH2]CCC`, the T/C (dose: 1.56 mg/kg/injection, schedule: Q04DX003 (ip), vehicle: Klucel (hydroxypropylcellulose) (HPC)) was 110 % of control, the T/C (dose: 3.12 mg/kg/injection, schedule: Q01DX009 (ip), vehicle: Klucel (hydroxypropylcellulose) (HPC)) was 105 % of control and the T/C (dose: 3.13 mg/kg/injection, schedule: Q04DX003 (ip), vehicle: Klucel (hydroxypropylcellulose) (HPC)) was 124 % of control. The T/C (dose: 6.25 mg/kg/injection, schedule: Q01DX009 (ip), vehicle: Klucel (hydroxypropylcellulose) (HPC)) was 153 % of control, the T/C (dose: 6.25 mg/kg/injection, schedule: Q04DX003 (ip), vehicle: Klucel (hydroxypropylcellulose) (HPC)) was 154 % of control and the T/C (dose: 12.5 mg/kg/injection, schedule: Q01DX009 (ip), vehicle: Klucel (hydroxypropylcellulose) (HPC)) was 156 % of control and 158 % of control. For the same molecule, the T/C (dose: 12.5 mg/kg/injection, schedule: Q04DX003 (ip), vehicle: Klucel (hydroxypropylcellulose) (HPC)) was 100 % of control and 105 % of control and the T/C (dose: 25.0 mg/kg/injection, schedule: Q01DX009 (ip), vehicle: Klucel (hydroxypropylcellulose) (HPC)) was 194 % of control.
For `Nc1nc(=S)c2ncn(C3OC(CO)CC3O)c2[nH]1` (stereo not given), the T/C (dose: 100.0 mg/kg/injection, schedule: Q01DX009 (ip), vehicle: saline) was 95 % of control.
In the case of `CC12C3C(=O)NC45CCCC41C5(c1ccccc1)C32c1ccccc1` (stereo not given), the T/C (dose: 100.0 mg/kg/injection, schedule: Q01DX001 (ip), vehicle: saline sonified) was 95 % of control, the T/C (dose: 200.0 mg/kg/injection, schedule: Q01DX001 (ip), vehicle: saline sonified) was 95 % of control and the T/C (dose: 400.0 mg/kg/injection, schedule: Q01DX001 (ip), vehicle: saline sonified) was 86 % of control.
`COC(OC)c1[nH]c(=S)[nH]c(=O)c1Cc1cc([N+](=O)[O-])ccc1O` was tested, and the T/C (dose: 25.0 mg/kg/injection, schedule: Q04DX003 (ip), vehicle: saline with Tween-80) was 104 % of control, the T/C (dose: 50.0 mg/kg/injection, schedule: Q04DX003 (ip), vehicle: saline with Tween-80) was 108 % of control and the T/C (dose: 100.0 mg/kg/injection, schedule: Q04DX003 (ip), vehicle: saline with Tween-80) was 95 % of control. The T/C (dose: 200.0 mg/kg/injection, schedule: Q04DX003 (ip), vehicle: saline with Tween-80) was 104 % of control and the T/C (dose: 400.0 mg/kg/injection, schedule: Q04DX003 (ip), vehicle: saline with Tween-80) was 90 % of control.
`COc1ccc(/C=C/c2ccc3ccccc3[n+]2C)cc1OC` was tested, and the T/C (dose: 18.75 mg/kg/injection, schedule: Q01DX009 (ip), vehicle: saline) was 150 % of control and the T/C (dose: 37.5 mg/kg/injection, schedule: Q01DX009 (ip), vehicle: saline) was 160 % of control.
For `COc1ccc(NC(=O)Oc2cc(C)cc(C)c2)cc1`, the T/C [1] was 100 % of control, the T/C [2] was 95 % of control and the T/C [3] was 100 % of control.
`N#Cc1c(F)c(F)c(C#N)c(F)c1F` was tested, and the T/C (dose: 1.25 mg/kg/injection, schedule: Q01DX009 (ip), vehicle: Klucel (hydroxypropylcellulose) (HPC)) was 100 % of control, the T/C (dose: 2.5 mg/kg/injection, schedule: Q01DX009 (ip), vehicle: Klucel (hydroxypropylcellulose) (HPC)) was 104 % of control and the T/C (dose: 5.0 mg/kg/injection, schedule: Q01DX009 (ip), vehicle: Klucel (hydroxypropylcellulose) (HPC)) was 108 % of control. For the same molecule, the T/C (dose: 10.0 mg/kg/injection, schedule: Q01DX009 (ip), vehicle: Klucel (hydroxypropylcellulose) (HPC)) was 104 % of control.
`CC(C)([NH-])CO.CC(C)([NH-])CO.[Cl][Cd][Cl]` was tested, and the T/C (dose: 5.0 mg/kg/injection, schedule: Q01DX009 (ip), vehicle: saline) was 120 % of control, the T/C (dose: 6.25 mg/kg/injection, schedule: Q04DX003 (ip), vehicle: saline sonified) was 104 % of control and the T/C (dose: 10.0 mg/kg/injection, schedule: Q01DX009 (ip), vehicle: saline) was 120 % of control. For the same molecule, the T/C (dose: 10.0 mg/kg/injection, schedule: Q04DX003 (ip), vehicle: saline) was 109 % of control, the T/C (dose: 12.5 mg/kg/injection, schedule: Q04DX003 (ip), vehicle: saline sonified) was 108 % of control and the T/C (dose: 20.0 mg/kg/injection, schedule: Q04DX003 (ip), vehicle: saline) was 95 % of control.
`Cc1cc(C)nc(NS(=O)(=O)c2ccc(NC(=O)C(Cl)(Cl)Cl)cc2)n1` was tested, and the T/C (dose: 100.0 mg/kg/injection, schedule: Q01DX005 (ip), vehicle: saline with Tween-80) was 93 % of control and the T/C (dose: 200.0 mg/kg/injection, schedule: Q01DX005 (ip), vehicle: saline with Tween-80) was 88 % of control.
With `BrC1C(Br)C(Br)C2OC2C1Br` (stereo not given) the T/C [1] was 100 % of control, the T/C [2] was 105 % of control and the T/C [3] was 100 % of control.
`OCCOCCOCCN1CCN(CCCN2c3ccccc3Sc3ccc(C(F)(F)F)cc32)CC1` was tested, and the T/C (dose: 0.79 mg/kg/injection, schedule: Q01DX009 (ip), vehicle: saline) was 91 % of control and the T/C (dose: 6.25 mg/kg/injection, schedule: Q01DX009 (ip), vehicle: saline) was 112 % of control.
For `CCN(CC)CCNc1ccc(COC(=O)NC)c2sc3ccccc3c(=O)c12`, the T/C (dose: 6.25 mg/kg/injection, schedule: Q01DX009 (ip), vehicle: saline with Tween-80) was 166 % of control.
